For series [1], the system named is ear pinnae of the BALB/c 2-month-old female mice. The experiment in a line: Ear pinnae hole closure (ear pinnae injury model, 2 mm through-and-through holes). It counts as in vivo. The protocol:
In order to evaluate the regenerative effect of zebularine, through-and-through holes of 2 mm diameter were made in the ear pinnae of the BALB/c 2-month-old female mice using scissor style ear punch. The mice were randomly divided into two groups consisting of six individuals each. The mice of one group were intraperitoneally injected with 7 doses of zebularine dissolved in saline (50 mg/ml), 1000 mg/kg body weight, on the day of injury directly after punching, and 1, 2, 3, 4, 7, 10 days after injury. The second, control group, was administered with saline.
The experiment was repeated 8 times. Collectively, the experiment was performed for 47 zebularine treated and 48 saline (vehiculum) administered control mice. […] The mean ear hole areas determined on the day 42 post injury were 0.53+/-0.3 and 1.77+/-0.48 sq mm for zebularine treated and saline controls, respectively. The results expressed as percentage of wound closure correspond to 83.2% and 43.6% for the zebularine treated and control group, respectively (Figure 2).The timeline of regeneration process is presented in Figure 3. […] The distributions of ear hole areas on the day 42 after injury were plotted as dot diagrams, where each dot represents an individual ear (Figure 4). The diagrams not only show the biological variation in response to injury and zebularine treatment but clearly expose the contrast between the control and zebularine treated groups. […]

For series [2], the system named is dorsal skin wounds, mice of the BALB/c strain. As to the kind of experiment: Dorsal skin excision model, topical delivery, wound closure. The class given is in vivo. How it is done: The effect of topically delivered zebularine on wound healing was determined using the dorsal skin excision model. Six 2-month-old female mice of the BALB/c strain were used for the experiment. Prior to the injury, the mice were anaesthetized. The dorsal skin was shaved and disinfected. Two symmetrical full-thickness excisional wounds were made in the dorsum using a biopsy punch of 6 mm diameter. Ten microliter of zebularine suspension (200 mg per 1 ml of saline) was dropped directly onto the wound immediately after wounding and once daily for the next four days. Promptly after zebularine application, the wounds were covered with a transparent dressing, and next, the dressing was fastened with adhesive plaster wrapped around the mouse. An analogical experiment was performed for six mice of control group that were not treated with zebularine. The animal study protocol was approved by the Local Ethics Committee for Animal Experimentation at the University of Science and Technology in Bydgoszcz, Poland (Permit No. 49/2016).
The wounds were photographed on the day of injury (d0) and on the day 2, 4, 7, 9, 11, 14, and 18 after wounding. The wound closure progress was tracked by determining wound area using computer-assisted image analysis. […] Complete wound closure was observed on the day 11 for zebularine treated mice and on the day 18 for the control ones (Figure 13).

The conditions of series [3]: 37°C, pH 7.4 (Cheng et al. 2003); cited from earlier work.
The test system of the next series is mice. To be noted: 400 mg/kg body weight intraperitoneally for 78 consecutive days (Herranz et al. 2006); cited from earlier work.
In series [4] the test system is Cdkn2a, Msx1, Nanog, Sox2, Bdnf, Sox1, Nog, and Myt1l. As to the kind of experiment: Expression of pluripotency, developmental and cell cycle genes in the injury/repair area (real-time PCR). To be noted: day 7 after injury; zebularine treated versus control mice; most remarkable for Nanog and Sox2. It counts as in vivo. The text has this:
In order to determine the effect of zebularine on the expression of pluripotency, developmental and cell cycle genes, the transcript levels for a panel of selected genes including Cdkn2a, Msx1, Nanog, Sox2, Bdnf, Sox1, Nog, and Myt1l were examined in the injury/repair area, in zebularine treated and control mice at the day 7, 14, 21 and 42 following injury in addition to unwounded ear pinnae designated as day 0. For the purpose, the ear punched mice were sacrificed at selected time points, the ears were collected on RNAlater reagent (Qiagen), stored at -80 °C until the rings surrounding the holes were excised using a 3 mm biopsy punch, following RNA extraction from thus obtained tissues using RNeasy kit (Qiagen). The levels of selected transcripts were determined for 6 mice (8 ears) for each time point using real-time PCR quantitation and Tbp and Actb as the reference genes. […] The most remarkable changes were found for the pluripotency genes, Nanog and Sox2 (Figure 7).
A general note: Quantitative PCR measures a nucleic acid by following its amplification.

Another series has as its system 5-methylcytosine. As to the kind of experiment: Global DNA methylation in the injury/regeneration area (5-mC DNA ELISA). It counts as in vivo, mice. The note with it: day 7 following injury; zebularine treated versus control. From the text:
DNA methylation in promoter regions is one of key epigenetic mechanisms responsible for gene repression. In order to determine the zebularine demethylating effect on DNA in the regenerating tissues, the content of 5-methylcytosine was compared in the tissues collected from the rings surrounding the ear pinnae holes in the zebularine treated and control animals. For the purpose, the ear punched zebularine treated and control mice were sacrificed at the days 7, 14, 21, and 42 after injury. The ears were collected, and the rings surrounding the holes were excised with a 3 mm biopsy punch, following genomic DNA extraction from thus obtained tissues using DNeasy kit (Qiagen). The levels of 5-methylcytosine were estimated using 5-mC DNA ELISA Kit (ZYMO, D5325) in 100 ng aliquots of genomic DNA.
(ELISA stands for enzyme-linked immunosorbent assay.)

The conditions of series [5]: estimated (Ben-Kasus et al. 2005); cited from earlier work.
A further series concerns laboratory mice. To be noted: GM284 topical delivery (US2009/0093528A1); XAV-939 (Bastakoty et al. 2015); 1,4-DPCA (Zhang et al. 2015); cited from earlier work.

For `Nc1ncn([C@@H]2O[C@H](CO)[C@@H](O)[C@H]2O)c(=O)n1` [5-azacytidine, reference compound], in series [1] (0.25 mg/kg body weight i.p., 7 times, day 42, 6 mice, compared with zebularine and saline), the “effect on ear hole closure (result in words)” value was “did not stimulate ear hole closure”.
As to `O=c1ncccn1[C@@H]1O[C@H](CO)[C@@H](O)[C@H]1O` [zebularine, 1-(β-D-ribofuranosyl)-2(1H)-pyrimidinone], the “decrease of the time of wound closure” value in series [2] (10 microliter of 200 mg/ml suspension after wounding and once daily for four days, 6 mm wounds) is listed as “approximately 7 days”. Further, the “day of complete wound closure” value in series [2] (10 microliter of 200 mg/ml suspension, five applications, control day 18) turned out to be 11 days. In addition, the half-life in water in series [3] was 21.2 days. Also, in the series on mice, the “toxic effects in mice” value is on record as “No toxic effects”. The “expression of the selected transcripts in the injury/repair area” value in series [4] is listed as “Significantly enhanced expression”. Besides, the “DNA methylation (5-methylcytosine content) in the injury/regeneration area” value with 5-methylcytosine is on record as “significant decrease in DNA methylation”. In addition, the “mean ear hole areas determined on the day 42 post injury” value in series [1] (1000 mg/kg body weight intraperitoneally, 7 doses (day 0, 1, 2, 3, 4, 7, 10), 47 mice, saline control 1.77+/-0.48) is reported as 0.53+/-0.3 sq mm. For the same compound, in series [1] (1000 mg/kg i.p., 7 doses), the “day after injury of maximal ear hole closure” value was determined as 35 days. Besides, the “day after injury from which significantly better ear hole closure was recorded” value in series [1] (1000 mg/kg i.p., 7 doses, versus saline control) stood at 21 days. In series [1] (day 42 after injury, 1000 mg/kg i.p., 7 doses, control group 43.6%), the “percentage of wound closure (ear hole closure area)” value is recorded as 83.2%. Moreover, in series [1] (representative mouse, 1000 mg/kg i.p., 7 doses (Figure 1)), the “time to almost complete closure of the ear pinnae hole” value was “approximately 30 days”. Moreover, in series [1] (subcutaneous injections, 1000 mg/kg, 7 doses, day 42 (Figure 6)), the “effect of subcutaneous delivery on ear pinnae hole closure” value is on record as “statistically significant response but proved less effective than intraperitoneal delivery”. In addition, the “RNA incorporation relative to DNA incorporation” value in series [5] is given as 7 fold.
As to `CC1=C(/C=C/C(C)=C/C=C/C(C)=C/C(=O)O)C(C)(C)CCC1=O` [4-keto RA, 4-keto retinoic acid, reference compound], the “ear hole closure (result in words)” value in series [1] (Example 4: i.p., zebularine 1000 mg/kg 7 times, RA or 4-keto RA 16 mg/kg 6 times, followed for 42 days) was “Partial ear hole closure”.
With `CCC(C)(C)C(=O)C(=O)N1CCC[C@H]1c1nnc([C@@H]2CCCN2C(=O)C(=O)C(C)(C)CC)o1` [GM284], the “ear hole closure reported in the literature (result in words)” value (“ear hole closure reported” for short) with laboratory mice was “Ear hole closure”.
Regarding `Oc1nc(-c2ccc(C(F)(F)F)cc2)nc2c1CSCC2` [XAV-939], the “ear hole closure reported” value in the series on laboratory mice is listed as “partial ear hole closure induction”.
As to `O=C(O)c1c[nH]c2c(ccc3cccnc32)c1=O` [1,4-DPCA, 4-oxo-1H-1,10-phenanthroline-3-carboxylic acid], in the series with laboratory mice, the “ear hole closure reported” value is recorded as “partial ear hole closure induction”.

The values are drawn from patent EP3492086B1, “PHARMACEUTICAL COMPOSITION COMPRISING ZEBULARINE (1-(BETA-D-RIBOFURANOSYL)-2(1H)-PYRIMIDINONE) FOR USE IN PROMOTING REGENERATION AND WOUND HEALING” (Uniwersytet Gdanski, priority 2017, dated 2019).
